For experiment [1], the target named is T1, TRPC5:C5 channels (hTRPC5) (Homo sapiens, UniProt Q9UL62).
T1 construct: expressed in transfected cells
T1 sequence (Q9UL62 1-973): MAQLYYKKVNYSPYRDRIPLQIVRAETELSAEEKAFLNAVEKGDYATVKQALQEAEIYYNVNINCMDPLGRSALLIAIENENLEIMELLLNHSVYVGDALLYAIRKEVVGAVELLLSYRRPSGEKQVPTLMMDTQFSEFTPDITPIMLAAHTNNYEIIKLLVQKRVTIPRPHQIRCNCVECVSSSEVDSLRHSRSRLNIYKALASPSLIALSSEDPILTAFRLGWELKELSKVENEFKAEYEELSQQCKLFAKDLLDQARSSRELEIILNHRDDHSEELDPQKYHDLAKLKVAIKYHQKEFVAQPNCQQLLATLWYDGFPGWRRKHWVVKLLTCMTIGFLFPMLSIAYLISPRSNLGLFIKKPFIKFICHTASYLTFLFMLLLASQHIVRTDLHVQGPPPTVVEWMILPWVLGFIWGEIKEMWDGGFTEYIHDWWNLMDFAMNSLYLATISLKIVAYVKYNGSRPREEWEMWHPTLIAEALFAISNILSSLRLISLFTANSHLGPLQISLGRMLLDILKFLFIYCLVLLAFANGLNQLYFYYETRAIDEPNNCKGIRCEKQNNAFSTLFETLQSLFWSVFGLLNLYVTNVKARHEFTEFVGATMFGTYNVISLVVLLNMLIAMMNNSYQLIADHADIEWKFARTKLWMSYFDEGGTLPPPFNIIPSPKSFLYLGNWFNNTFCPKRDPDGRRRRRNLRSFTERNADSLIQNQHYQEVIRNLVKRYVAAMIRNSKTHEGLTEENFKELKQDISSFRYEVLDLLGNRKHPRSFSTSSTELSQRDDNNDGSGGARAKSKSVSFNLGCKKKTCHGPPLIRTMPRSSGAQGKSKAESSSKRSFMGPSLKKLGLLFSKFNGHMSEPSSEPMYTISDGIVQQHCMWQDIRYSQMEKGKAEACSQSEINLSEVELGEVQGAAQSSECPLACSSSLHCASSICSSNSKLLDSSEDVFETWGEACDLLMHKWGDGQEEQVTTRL
The experiment can be described thus: Excised outside-out patch-clamp, hTRPC5-expressing HEK (Tet+) T-REx cells. In kind it is cell-based. How it is done: For electrophysiology experiments, cells were plated at a low density of 20–30% onto round or square glass coverslips (13 mm diameter or 5 × 5 mm), and TRPC expression in HEK T‐REx was induced with 1 μg·ml^−1 tetracycline 24 hr before experimentation. Experiments were carried out at room temperature. Extracellular solution consisted of SBS. Patch‐clamp recordings were performed in whole‐cell mode (Figure S7) and in excised outside‐out patch mode under voltage clamp at room temperature using 2–4 MΩ patch pipettes fabricated from borosilicate glass capillaries with an outside diameter of 1 mm and an inside diameter of 0.58 mm (Harvard Apparatus). The voltage protocol comprised voltage ramps applied from −100 to +100 mV every 10 s from a holding potential of 0 mV. The patch‐clamp currents were recorded using Axopatch 200B or HEKA EPC‐800 amplifiers, digitized by a Digidata 1440 or PCI6229 (National Instruments Japan, Tokyo, Japan) and recorded to a computer using pCLAMP10 (Molecular Devices) or WinWCPV4.5 (developed by Dr John Dempster, University of Strathclyde, UK). The data were filtered at 1 kHz and analysed offline using Clampfit 10.2 software or WinWCPV4.5 and Origin 9.1 software (OriginLab, Northampton, MA). The bath solution consisted of SBS and the pipette solution (intracellular solution) contained 145‐mM CsCl, 2‐mM MgCl2, 10‐mM HEPES, 1‐mM EGTA (free acid), 5‐mM ATP (sodium salt), and 0.1‐mM NaGTP, titrated to pH 7.2 with CsOH. All solutions were filtered using a 0.2 μm filter (Sartorius, UK). Comparisons of peak current sizes mediated by EA‐activated TRPC1/4/5 channels in whole cells and excised outside‐out patches are provided in Figure S12.
Background: In patch-clamp work, channel activity is measured electrically.

The target in experiment [2] is T2, TRPC6 (Homo sapiens, UniProt Q9Y210).
T2 construct: expressed in transfected cells; host or cells: WT HEK 293 (transient, jetPRIME; pcDNA3)
T2 sequence (Q9Y210 1-931): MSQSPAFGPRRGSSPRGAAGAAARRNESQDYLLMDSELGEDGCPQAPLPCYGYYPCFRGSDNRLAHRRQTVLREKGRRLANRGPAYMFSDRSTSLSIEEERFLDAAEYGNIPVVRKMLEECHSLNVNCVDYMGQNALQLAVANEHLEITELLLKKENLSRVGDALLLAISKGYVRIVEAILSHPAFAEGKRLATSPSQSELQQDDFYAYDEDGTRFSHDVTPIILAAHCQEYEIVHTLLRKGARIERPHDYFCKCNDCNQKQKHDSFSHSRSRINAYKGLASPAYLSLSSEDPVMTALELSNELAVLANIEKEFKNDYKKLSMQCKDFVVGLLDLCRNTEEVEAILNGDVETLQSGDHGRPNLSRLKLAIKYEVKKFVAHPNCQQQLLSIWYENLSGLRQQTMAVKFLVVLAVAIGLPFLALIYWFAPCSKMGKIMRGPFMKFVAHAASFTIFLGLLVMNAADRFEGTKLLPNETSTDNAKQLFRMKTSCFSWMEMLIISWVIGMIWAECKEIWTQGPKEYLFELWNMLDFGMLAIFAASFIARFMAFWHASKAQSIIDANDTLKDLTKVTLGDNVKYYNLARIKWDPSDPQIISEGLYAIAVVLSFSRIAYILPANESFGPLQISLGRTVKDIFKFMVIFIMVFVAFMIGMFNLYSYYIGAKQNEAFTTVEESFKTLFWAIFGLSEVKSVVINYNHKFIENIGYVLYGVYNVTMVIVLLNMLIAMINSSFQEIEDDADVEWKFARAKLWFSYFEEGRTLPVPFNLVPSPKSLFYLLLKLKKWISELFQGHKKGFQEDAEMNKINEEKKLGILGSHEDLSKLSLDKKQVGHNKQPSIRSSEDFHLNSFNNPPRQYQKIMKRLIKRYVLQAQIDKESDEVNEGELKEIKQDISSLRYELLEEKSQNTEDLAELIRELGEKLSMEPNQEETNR
The experiment can be described thus: [Ca2+]i selectivity assay, WT HEK 293 cells transiently transfected with hTRPC6, OAG activation. Format: cell-based. The conditions noted are these: 300 nM AM237; 100 μM OAG.

The values that follow come from PMC6811774, “Potent, selective, and subunit‐dependent activation of TRPC5 channels by a xanthine derivative” (British Journal of Pharmacology, 2019).

Take `Cn1c(=O)n(CCCO)c(=O)c2c1nc(Oc1ccc(Cl)c(OC(F)(F)F)c1)n2Cc1ccc(Cl)cc1` [AM237]: the “Effect on inward and outward currents induced by EA” value in experiment [1] (30 nM EA, outside-out patch) is listed as “partially suppressed”. Also, the “Amplitude of outward current response compared to response induced by 30-nM EA” value in experiment [1] (+100 mV, outside-out patch) is reported as “up to 45%”. In addition, the “Amplitude of inward current response compared to response induced by 30-nM EA” value in experiment [1] (-100 mV, outside-out patch) is given as “up to 25%”. Besides, the “Concentration giving peak current” value in experiment [1] (in the presence of 1- and 3-nM Pico145, decreasing at 300 nM and 1 μM) is reported as 100 nM. The “Concentration giving maximum current response” value in experiment [1] (no Pico145, lower responses at 100 nM) came out at 30 nM. In addition, the “Activation or inhibition of TRPC6” value in experiment [2] was “no activation or inhibition”.
